Measured values reported in ChEMBL document CHEMBL5131480, “Cinnamic acid derivatives linked to arylpiperazines as novel potent inhibitors of tyrosinase activity and melanin synthesis” (Eur J Med Chem, 2022).
Activity calls are given as the source filed them. The calls are words filed in the database; no cut-off is given here.

What was measured:
Mushroom tyrosinase = Mushroom tyrosinase (Agaricus bisporus, UniProt O42713+Q00024+C7FF04+C7FF05); assay: Inhibition of mushroom tyrosinase using L-DOPA as substrate preincubated with substrate for 10 mins followed by addition of enzyme and measured for 5 mins by spectrophotometric analysis
[1] = target: T1, Tyrosinase (Homo sapiens) (UniProt P14679); assay: Inhibition of tyrosinase activity in alpha-MSH stimulated human A-375 cells using L-DOPA as substrate at 20 uM by microplate reader analysis; assay type: cell-based
T1 sequence (whole entry): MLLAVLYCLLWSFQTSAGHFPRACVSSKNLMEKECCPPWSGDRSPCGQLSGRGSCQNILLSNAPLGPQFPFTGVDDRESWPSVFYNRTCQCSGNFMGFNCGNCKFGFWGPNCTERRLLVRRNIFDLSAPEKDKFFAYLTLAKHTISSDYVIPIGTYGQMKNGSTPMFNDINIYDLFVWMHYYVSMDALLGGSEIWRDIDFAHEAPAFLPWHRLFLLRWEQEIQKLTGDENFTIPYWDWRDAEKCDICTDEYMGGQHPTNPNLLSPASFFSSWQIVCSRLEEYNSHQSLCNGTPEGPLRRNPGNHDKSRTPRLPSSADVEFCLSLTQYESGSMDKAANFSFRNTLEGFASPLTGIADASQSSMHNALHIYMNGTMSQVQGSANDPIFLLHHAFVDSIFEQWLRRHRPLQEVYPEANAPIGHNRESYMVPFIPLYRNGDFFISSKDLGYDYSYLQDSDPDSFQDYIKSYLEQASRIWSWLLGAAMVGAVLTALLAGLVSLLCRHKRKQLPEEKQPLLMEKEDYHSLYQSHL

[2] = target: Mushroom tyrosinase (Agaricus bisporus) (UniProt O42713+Q00024+C7FF04+C7FF05); assay: Potency index, ratio of kojic acid IC50 to test compound IC50 for mushroom tyrosinase by spectrophotometric analysis
in vitro [3] = conditions: human, A-375 cells
Description: Cytotoxicity against human A-375 cells assessed as reduction in cell viability incubated for 72 hrs by MTT assay

in vitro [4] = conditions: human, A-375 cells; remark: listed apart in the source
Description: Cytotoxicity against human A-375 cells assessed as cell viability at 50 uM incubated for 72 hrs by MTT assay relative to control

Danio rerio [5] = species on record: Danio rerio; assay: Anti-melanogenic activity against zebra fish embryos assessed as proportion of embryos with none to mild moderate decrease in melanogenesis at 50 uM measured after 48 hrs by stereomicroscope analysis relative to control; assay type: functional; set-up: scale not given: the % may be the effect or the level left
Danio rerio [6] = species on record: Danio rerio; assay: Anti-melanogenic activity against zebra fish embryos assessed as proportion of embryos showing profound decrease in melanogenesis at 25 uM measured after 48 hrs by stereomicroscope analysis relative to control; assay type: functional; set-up: scale not given: the % may be the effect or the level left
Danio rerio [7] = species on record: Danio rerio; assay: Anti-melanogenic activity against zebra fish embryos assessed as proportion of embryos showing moderate decrease in melanogenesis at 25 uM measured after 48 hrs by stereomicroscope analysis relative to control; assay type: functional; set-up: scale not given: the % may be the effect or the level left
[8] = Cytotoxicity against human A-375 cells assessed as cell viability at 20 uM incubated for 72 hrs by MTT assay relative to control; assay type: toxicity, cell-based; conditions: read-out: Activity
Danio rerio [9] = species on record: Danio rerio; assay: Anti-melanogenic activity against zebra fish embryos assessed as proportion of embryos showing profound decrease in melanogenesis at 50 uM measured after 48 hrs by stereomicroscope analysis relative to control; assay type: functional; set-up: scale not given: the % may be the effect or the level left
[10] = Acute toxicity in zebra fish embryos assessed as death of organism measured at 25 to 100 uM measured after 24 hrs by stereomicroscope analysis; set-up: species or system Danio rerio; conditions: zebrafish, dose 25-100 µM
[11] = Acute toxicity in zebra fish embryos assessed as lack of heart beat at 25 to 100 uM measured after 24 hrs by stereomicroscope analysis; assay type: tissue-based, Danio rerio; conditions: zebrafish, dose 25-100 µM
Danio rerio [12] = species on record: Danio rerio; assay: Anti-melanogenic activity against zebra fish embryos assessed as proportion of embryos showing moderate decrease in melanogenesis at 50 uM measured after 48 hrs by stereomicroscope analysis relative to control; assay type: functional; set-up: scale not given: the % may be the effect or the level left
Danio rerio [13] = species on record: Danio rerio; assay: Anti-melanogenic activity against zebra fish embryos assessed as proportion of embryos with none to mild moderate decrease in melanogenesis at 25 uM measured after 48 hrs by stereomicroscope analysis relative to control; assay type: functional; set-up: scale not given: the % may be the effect or the level left
[14] = Acute toxicity in zebra fish embryos assessed as lack of somite formation at 25 to 100 uM measured after 24 to 48 hrs by stereomicroscope analysis; set-up: species or system Danio rerio; conditions: zebrafish, dose lower 25 µM, time lower 24 hrs, dose upper 100 µM, time upper 48 hrs
[15] = Acute toxicity in zebra fish embryos assessed as coagulation of fertilized eggs measured at 25 to 100 uM measured after 24 to 48 hrs by stereomicroscope analysis; set-up: species or system Danio rerio; conditions: zebrafish, dose lower 25 µM, time lower 24 hrs, dose upper 100 µM, time upper 48 hrs
[16] = Acute toxicity in zebra fish embryos assessed as lack of heart beat at 25 to 100 uM measured after 24 to 48 hrs by stereomicroscope analysis; assay type: tissue-based, Danio rerio; conditions: zebrafish, dose lower 25 µM, time lower 24 hrs, dose upper 100 µM, time upper 48 hrs
[17] = Acute toxicity in zebra fish embryos assessed as lack of detachment of tail bud from yolk sac at 25 to 100 uM measured after 24 to 48 hrs by stereomicroscope analysis; set-up: species or system Danio rerio, Embryo; conditions: zebrafish, dose lower 25 µM, time lower 24 hrs, dose upper 100 µM, time upper 48 hrs
[18] = Acute toxicity in zebra fish embryos assessed as alteration in heart functioning at 50 uM measured after 24 hrs by stereomicroscopic analysis; assay type: tissue-based, Danio rerio; conditions: zebrafish
[19] = Acute toxicity in zebra fish embryos assessed as bradycardia at 25 to 100 uM measured after 48 hrs by stereomicroscope analysis; set-up: species or system Danio rerio; conditions: zebrafish, dose 25-100 µM
[20] = Acute toxicity in zebra fish embryos assessed as pericardial edema and embryonic lethality at 50 uM measured after 24 hrs by stereomicroscopic analysis; set-up: species or system Danio rerio; conditions: zebrafish
[21] = Acute toxicity in zebra fish embryos assessed as lack of somite formation at 25 to 100 uM measured after 24 hrs by stereomicroscope analysis; set-up: species or system Danio rerio; conditions: zebrafish, dose 25-100 µM
[22] = Acute toxicity in zebra fish embryos assessed as lack of detachment of tail bud from yolk sac at 25 to 100 uM measured after 24 hrs by stereomicroscope analysis; set-up: species or system Danio rerio, Embryo; conditions: zebrafish, dose 25-100 µM
[23] = Acute toxicity in zebra fish embryos assessed as death of organism at 50 uM measured after 48 hrs by stereomicroscope analysis; set-up: species or system Danio rerio; conditions: zebrafish
[24] = Acute toxicity in zebra fish embryos assessed as coagulation of fertilized eggs at 25 to 100 uM measured after 24 hrs by stereomicroscope analysis; set-up: species or system Danio rerio; conditions: zebrafish, dose 25-100 µM
[25] = Acute toxicity in zebra fish embryos assessed as strong malformation embryos at 100 uM measured after 48 hrs by stereomicroscope analysis; set-up: species or system Danio rerio; conditions: zebrafish
[26] = target: T1, Tyrosinase (Homo sapiens); assay: Inhibition of tyrosinase activity in alpha-MSH stimulated human A-375 cells using L-DOPA as substrate at 20 uM by microplate reader analysis relative to control; assay type: cell-based
[27] = Acute toxicity in zebra fish embryos assessed as bradycardia at 25 to 100 uM measured after 24 hrs by stereomicroscope analysis; set-up: species or system Danio rerio; conditions: zebrafish, dose 25-100 µM
[28] = Acute toxicity in zebra fish embryos assessed as strong malformation embryos at 25 to 100 uM measured after 48 hrs by stereomicroscope analysis; set-up: species or system Danio rerio; conditions: zebrafish, dose 25-100 µM

SMILES	IC50 (Mushroom tyrosinase) [µM]	Ratio IC50 [2]	GI50 at 72 h (in vitro [3]) [µM]	viability at 72 h, 50 µM (in vitro [4]) [%]	Activity (Danio rerio [5]) [%]	Activity (Danio rerio [6]) [%]	Activity (Danio rerio [7]) [%]	viability at 72 h, 20 µM [8] [%]	Activity (Danio rerio [9]) [%]	Activity (Danio rerio [12]) [%]	Activity (Danio rerio [13]) [%]	further results
O=C(/C=C/c1ccc2c(c1)OCO2)N1CCN(c2cccc(Cl)c2)CC1	34.25											
COc1ccc(/C=C/C(=O)N2CCN(c3ccc(F)c(F)c3)CC2)cc1[N+](=O)[O-]	15.47											
O=C(/C=C/c1ccc(Cl)cc1)N1CCN(c2ccc(F)cc2)CC1	14.09											
COc1cccc(/C=C/C(=O)N2CCN(c3ccc(F)c(Cl)c3)CC2)c1Cl	0.12	150	> 50	69.6	50	0	15	98	20	30	85	inhibition [1]: Active; Activity [10]: Toxic; Activity [11]: Toxic
COc1ccc(/C=C/C(=O)N2CCN(c3ccc(F)c(Cl)c3)CC2)cc1N	0.53	30	16.1		50	0	20	45	30	20	80	Activity [14]: Non-Toxic; Activity [15]: Non-Toxic; Activity [16]: Non-Toxic; Activity [17]: Non-Toxic
COc1ccc(/C=C/C(=O)N2CCN(c3ccc(F)cc3)CC2)cc1N	17.85											
COc1ccc(Cl)cc1/C=C/C(=O)N1CCN(c2ccc(F)c(Cl)c2)CC1	0.46	30	> 50	72.6				98				Activity [18]: 95%; Activity [19]: Toxic; Activity [20]: 5%; Activity [11]: Non-Toxic; Activity [21]: Non-Toxic; Activity [22]: Non-Toxic; Activity [23]: Toxic; Activity [24]: Non-Toxic
O=C(/C=C/c1cccc([N+](=O)[O-])c1)N1CCN(c2ccc(F)c(Cl)c2)CC1	0.16	30	> 50	87.2	85	0	0	98	0	15	100	Activity [25]: 6.6%; Activity [11]: Non-Toxic; Activity [21]: Non-Toxic; Activity [22]: Non-Toxic; Activity [24]: Non-Toxic
COc1ccc(/C=C/C(=O)N2CCN(c3ccc(F)c(F)c3)CC2)cc1N	6.84											
COc1cccc(/C=C/C(=O)N2CCN(c3ccc(F)cc3)CC2)c1	9.96											
COc1ccc(/C=C/C(=O)N2CCN(c3ccc(F)c(Cl)c3)CC2)cc1[N+](=O)[O-]	0.51	30	> 50	93.5	45	15	60	98	10	45	25	Activity [14]: Non-Toxic; Activity [15]: Non-Toxic; Activity [16]: Non-Toxic; Activity [17]: Non-Toxic; inhibition [26]: 60%
COc1ccc(/C=C/C(=O)N2CCN(c3cccc(F)c3)CC2)cc1N	> 100											
O=C(/C=C/c1ccc([N+](=O)[O-])cc1)N1CCN(c2ccc(F)c(Cl)c2)CC1	0.35	30	> 50	85.4				98				Activity [27]: Toxic; Activity [28]: 13.3%
COc1ccc(Cl)cc1/C=C/C(=O)N1CCN(c2ccc(F)cc2)CC1	27.4											
COc1ccc(/C=C/C(=O)N2CCN(Cc3ccccc3)CC2)cc1N	55.64											
O=C(/C=C/c1cccc([N+](=O)[O-])c1)N1CCN(c2ccc(F)cc2)CC1	23.32											
O=C(/C=C/c1ccc(Cl)cc1)N1CCN(c2ccc(F)c(Cl)c2)CC1	0.33	30	43.8		95	0	0	98	0	5	0	Activity [19]: Toxic; Activity [11]: Non-Toxic; Activity [21]: Non-Toxic; Activity [22]: Non-Toxic; Activity [24]: Non-Toxic
COc1cccc(/C=C/C(=O)N2CCN(c3ccc(F)c(Cl)c3)CC2)c1	0.25	30	> 50	54	100	0	0	98	0	0	100	inhibition [1]: Active; Activity [14]: Non-Toxic; Activity [15]: Non-Toxic; Activity [16]: Non-Toxic; Activity [17]: Non-Toxic
